Read-outs that look alike come from different tables or passages of the source.
Experiments:
Format in all cases: cell-based
[1] = tested on: Acinetobacter baumannii (DSM 30007, ATCC 19606); experiment: Broth microdilution MIC, Acinetobacter baumannii
Description: (§1) All liquids and media were sterilized by autoclaving (121° C., 15 min) before use. All aqueous solutions and media were prepared using distilled, deionized, and filtered water (Millipore Milli-Q Advantage A10 Water Purification System) Mueller-Hinton No. 2 broth (MHII broth; cation adjusted) was purchased from Sigma-Aldrich (St. Louis, Mo.). Iron-deficient (−Fe) MHII broth was prepared by adding 0.8 mL of a 1 mg/mL sterile aq. solution of 2,2′-bipyridine to 49.2 mL of MHII broth. Iron-rich (+Fe) MHII broth was prepared by adding 0.8 mL of a 1 mg/mL sterile aq. solution of FeCl3 to 49.2 mL of MH II broth.
(§2) Antibacterial activity of the compounds was determined by measuring their minimum inhibitory concentrations (MIC90's) using the broth microdilution method according to the Clinical and Laboratory Standards Institute (CLSI, formerly the NCCLS) guidelines. Each well of a 96-well microtiter plate was filled with 40 μL of sterile broth media (−Fe or +Fe). Each test compound was dissolved in DMSO making a 10 mM solution, and then diluted with sterile broth media (−Fe or +Fe) to 75 or 150 μM. Exactly 80 μL of the compound solution was added to the first well of the microtiter plate and 1.5-fold serial dilutions were made down each row of the plate. Exactly 40 μL of bacterial inoculum (Acinetobacter baumannii, Pseudomonas aeruginosa, Staphylococcus aureus Starting Optical density (OD)=0.0005) was then added to each well giving a total volume of 80 μL/well. The plate was incubated at 37° C. for 48 h and then each well was examined for bacterial growth. The MIC90 was recorded as the lowest compound concentration (μM) required to inhibit 90% of bacterial growth as judged by turbidity of the culture media relative to a row of wells filled with a DMSO standard.
(§3) Compounds HHY-10 and HHY-11 were subjected to further assays to determine their minimum inhibitory concentrations (MIC) in both iron-rich and iron-deficient media (Table 1). […] Compounds 10 and 11 were also tested against Klebsiella pneumoniae (DSM 11678, ATCC 33495), which is able to synthesize and utilize enterobactin and its degraded product for iron uptake under iron-limited conditions. […] It appears that P. aeruginosa, A. baumannii, Straph aureus and K. pneumoniae, either induced or inherently, have different abilities to use triscatecholate as a siderophore for iron uptake. The inhibitory activities of vancomycin siderophore-DOTA conjugate HHY-30 have been analyzed under similar conditions.

[2] = tested on: Pseudomonas aeruginosa PA7 (DSM 24068); experiment: Broth microdilution MIC, Pseudomonas aeruginosa
Description: as §1, §2, §3

[3] = tested on: Klebsiella pneumoniae (DSM 11678, ATCC 33495); experiment: Broth microdilution MIC, Klebsiella pneumoniae
Description: as §1, §2, §3

[4] = tested on: Staphylococcus aureus MRSA (DSM 11822, ICB 25701); experiment: Broth microdilution MIC, Staphylococcus aureus
Description: as §1, §2, §3

P. aeruginosa PA01/wt = experiment: Broth microdilution MIC, P. aeruginosa PA01/wt
Description: as §1, §2

P. aeruginosa PA07/wt = experiment: Broth microdilution MIC, P. aeruginosa PA07/wt
Description: as §1, §2

P. aeruginosa PA14/wt = experiment: Broth microdilution MIC, P. aeruginosa PA14/wt
Description: as §1, §2

P. aeruginosa PA01/pirA = experiment: Broth microdilution MIC, P. aeruginosa PA01/pirA mutant; conditions: mutant with defect in ferric enterobactin receptor (pirA)
Description: as §1, §2

P. aeruginosa PAO01/fptA = experiment: Broth microdilution MIC, P. aeruginosa PAO01/fptA mutant; conditions: mutation in pyochelin outer membrane receptor precursor
Description: as §1, §2

Acinetobacter baumannii = experiment: Uptake in bacteria by confocal fluorescent microscopy; conditions: 20 μM probe, 1 hour at 37° C., PBS
Description: The uptake of coumarin 343, HHY-10 and HHY-11 was investigated in gram-negative bacteria Pseudomonas aeruginosa PA7 (DSM 24068), Acinetobacter baumannii (DSM 30007, ATCC 19606) and gram-positive bacteria Staphylococcus aureus MRSA (DSM 11822, ICB 25701). Gram-negative bacteria were cultured overnight in Mueller Hinton Broth (M-H Broth)+1% glucose (10 g/L) or Gram-positive bacteria were cultured overnight in trypticase soy yeast extract medium (TSY-Med) at 37° C. under 5% CO2 in an incubator shaker set at 180 rpm. Bacteria (from the overnight culture) were re-suspended in 10 mL of PBS buffer, to an optical density of 0.1 at 600 nm. The bacterial culture solution was transferred into 48 well plates, with each well containing 200 μL of bacteria, and 0.4 μL of either coumarin 343, HHY-10 and HHY-11 stock solutions (10 mM in PBS) were added, generating a 20 μM probe concentration. The bacteria were incubated with the probes for 1 hour at 37° C. under 5% CO2 in an incubator without shaking. The bacteria were harvested by centrifuging the bacterial solutions. The resulting pellets were washed 3 times with 200 μL PBS by resuspending the pellets in PBS and centrifuging. The washed bacterial pellets were transferred into a slice, then imaged using confocal fluorescent microscopy. The intensity of the green signal from coumarin presents the relevant amount of these probes taken by the bacteria.

[5] = tested on: Pseudomonas aeruginosa PA7, Acinetobacter baumannii, Staphylococcus aureus MRSA; experiment: Bacterial inhibition assays, across the bacteria tested
Description: as §1
Antibacterial activity of the compounds was determined by measuring their minimum inhibitory concentrations (MIC90's) using the broth microdilution method according to the Clinical and Laboratory Standards Institute (CLSI, formerly the NCCLS) guidelines. Each well of a 96-well microtiter plate was filled with 40 μL of sterile broth media (−Fe or +Fe). Each test compound was dissolved in DMSO making a 10 mM solution, and then diluted with sterile broth media (−Fe or +Fe) to 75 or 150 μM. […]
Compounds HHY-10 and HHY-11 were subjected to further assays to determine their minimum inhibitory concentrations (MIC) in both iron-rich and iron-deficient media (Table 1). […] The inhibitory activities of vancomycin siderophore-DOTA conjugate HHY-30 have been analyzed under similar conditions.

[6] = Fe− (iron-deficient MHII broth)

O=C(O)c1cc2cc3c4c(c2oc1=O)CCCN4CCC3 [Coumarin 343, reference compound]
> 100 µM: MIC (generally inactive) ([5]; across bacteria)
would not lead to obvious fluorescence: uptake: fluorescence (green signal from coumarin) in bacteria (Acinetobacter baumannii)
>100 µM: MIC ([1]; Fe+ (iron-rich MHII broth)) | MIC [1, 6] | MIC ([2]; Fe+ (iron-rich MHII broth)) | MIC [2, 6] | MIC ([3]; Fe+ (iron-rich MHII broth)) | MIC [3, 6] | MIC ([4]; Fe+ (iron-rich MHII broth)) | MIC [4, 6] | MIC (P. aeruginosa PA01/wt; Fe+ (iron-rich MHII broth)) | MIC (P. aeruginosa PA01/wt; [6]) | MIC (P. aeruginosa PA07/wt; Fe+ (iron-rich MHII broth)) | MIC (P. aeruginosa PA07/wt; [6]) | MIC (P. aeruginosa PA14/wt; Fe+ (iron-rich MHII broth)) | MIC (P. aeruginosa PA14/wt; [6]) | MIC (P. aeruginosa PA01/pirA; Fe+ (iron-rich MHII broth)) | MIC (P. aeruginosa PA01/pirA; [6]) | MIC (P. aeruginosa PAO01/fptA; Fe+ (iron-rich MHII broth)) | MIC (P. aeruginosa PAO01/fptA; [6])

CC(=O)Oc1cccc(C(=O)NCCNC(=O)CN2CCN(CC(=O)NCCCOCCOCCOCCCNC(=O)c3cc4cc5c6c(c4oc3=O)CCCN6CCC5)CCN(CC(=O)NCCNC(=O)c3cccc(OC(C)=O)c3OC(C)=O)CCN(CC(=O)NCCNC(=O)c3cccc(OC(C)=O)c3OC(C)=O)CC2)c1OC(C)=O [HHY-10]
obvious fluorescent signals: uptake: fluorescence (green signal from coumarin) in bacteria (Acinetobacter baumannii)
28 µM: MIC ([4]; Staphylococcus aureus, Fe− (iron-deficient MHII broth))
> 100 µM: MIC ([1]; Acinetobacter baumannii, Fe+ (iron-rich MHII broth)) | MIC ([2]; Pseudomonas aeruginosa, DSM24068, Fe+ (iron-rich MHII broth)) | MIC ([3]; Klebsiella pneumoniae) | MIC ([3]; Klebsiella pneumoniae, read-out: MIC (inactive against K. pneumoniae)) | MIC ([4]; Staphylococcus aureus, Fe+ (iron-rich MHII broth)) | MIC (P. aeruginosa PA01/wt; Pseudomonas aeruginosa, PA01/WT, Fe+ (iron-rich MHII broth)) | MIC (P. aeruginosa PA07/wt; Pseudomonas aeruginosa, PA07/WT, Fe+ (iron-rich MHII broth)) | MIC (P. aeruginosa PA14/wt; Pseudomonas aeruginosa, PA14, Fe+ (iron-rich MHII broth)) | MIC (P. aeruginosa PA01/pirA; Pseudomonas aeruginosa, PA01/PIRA, Fe+ (iron-rich MHII broth)) | MIC (P. aeruginosa PAO01/fptA; Pseudomonas aeruginosa, PAO01/FPTA, Fe+ (iron-rich MHII broth))
>100 µM: MIC [3, 6]
15 µM: MIC ([1]; Acinetobacter baumannii, Fe− (iron-deficient MHII broth))
40 µM: MIC (P. aeruginosa PA01/wt; Pseudomonas aeruginosa, PA01/WT, Fe− (iron-deficient MHII broth)) | MIC (P. aeruginosa PA07/wt; Pseudomonas aeruginosa, PA07/WT, Fe− (iron-deficient MHII broth)) | MIC (P. aeruginosa PA14/wt; Pseudomonas aeruginosa, PA14, Fe− (iron-deficient MHII broth)) | MIC (P. aeruginosa PA01/pirA; Pseudomonas aeruginosa, PA01/PIRA, Fe− (iron-deficient MHII broth)) | MIC (P. aeruginosa PAO01/fptA; Pseudomonas aeruginosa, PAO01/FPTA, Fe− (iron-deficient MHII broth))
media antibacterial activity: antibacterial activity ([5]; iron-deficient medium)
33 µM: MIC ([2]; Pseudomonas aeruginosa, DSM24068, Fe− (iron-deficient MHII broth))
